Experimental data reported in PMC8700683, “A Novel Neutral and Mesophilic β-Glucosidase from Coral Microorganisms for Efficient Preparation of Gentiooligosaccharides” (Foods, 2021).

How the values were obtained:
Blg163 [1] = tested on: T1, Blg163; assay: hydrolysis kinetics, […] substrate; format: biochemical, uncultured bacterium (coral microbial metagenome); details: citrate buffer, pH 7.0, 30 °C, 5 min
T1 construct: full-length ORF 1341 bp, 447 residues (Met1 to Ser447), GH1; pEASY-E1 vector, His-tag (Ni-NTA) apparently kept; expressed in E. coli BL21(DE3) pLysS; best hits Rhodobacteraceae bacterium NVK46632.1 (homologue)

Blg163 [2] = tested on: T1, Blg163; assay: p-nitrophenol release, absorbance at […] nm; format: biochemical, uncultured bacterium (coral microbial metagenome); details: citrate buffer, pH 7.0, 30 °C, 5 min

Km (Blg163 [1]) [µM] | Km (Blg163 [2]) [µM] | Structure (SMILES)
450 |  | OC[C@H]1O[C@@H](O[C@H]2[C@H](O)[C@@H](O)C(O)O[C@@H]2CO)[C@H](O)[C@@H](O)[C@@H]1O (stereo partly drawn) [cellobiose]
720 |  | OC[C@H]1O[C@@H](OC[C@H]2OC(O)[C@H](O)[C@@H](O)[C@@H]2O)[C@H](O)[C@@H](O)[C@@H]1O (stereo partly drawn) [gentiobiose]
 | 320 | O=[N+]([O-])c1ccc(O[C@@H]2O[C@H](CO)[C@@H](O)[C@H](O)[C@H]2O)cc1 [p-Nitrophenyl-β-D-glucopyranoside]
